{"source": "paper PMC3814793", "about": "“Identification of a Plasmodium falciparum Phospholipid Transfer Protein” (The Journal of Biological Chemistry, 2013)", "assay_in_all_cases": "radiolabelled phospholipid transfer between donor and acceptor vesicles", "format_in_all_cases": "biochemical", "key": {"[1]": {"target": "T1, PITP (rat phosphatidylinositol transfer protein α) (Rattus norvegicus, UniProt P16446)", "T1 construct": "gene Pitpna", "T1 sequence (P16446 2-271)": "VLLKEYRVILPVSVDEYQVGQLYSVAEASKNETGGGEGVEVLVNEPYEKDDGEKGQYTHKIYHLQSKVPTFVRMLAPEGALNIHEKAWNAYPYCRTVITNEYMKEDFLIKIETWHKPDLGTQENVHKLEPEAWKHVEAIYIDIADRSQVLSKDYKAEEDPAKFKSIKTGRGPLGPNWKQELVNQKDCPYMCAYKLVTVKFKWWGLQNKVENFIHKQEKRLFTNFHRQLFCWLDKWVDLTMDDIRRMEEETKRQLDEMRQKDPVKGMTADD", "settings": "labelled compound; positive control protein; vesicles as in the rows above"}, "[2]": {"target": "T2, PFA0210cN123 (Plasmodium falciparum, UniProt Q8I298)", "T2 construct": "gene PF3D7_0104200", "T2 sequence (Q8I298 entry or part of it)": "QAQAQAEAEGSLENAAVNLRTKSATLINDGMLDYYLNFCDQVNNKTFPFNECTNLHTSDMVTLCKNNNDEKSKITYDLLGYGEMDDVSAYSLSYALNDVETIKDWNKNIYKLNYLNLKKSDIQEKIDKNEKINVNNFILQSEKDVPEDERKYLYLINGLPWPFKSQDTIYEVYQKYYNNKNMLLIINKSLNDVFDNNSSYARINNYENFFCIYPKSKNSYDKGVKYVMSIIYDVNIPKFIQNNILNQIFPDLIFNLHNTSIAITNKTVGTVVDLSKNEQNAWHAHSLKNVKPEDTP", "settings": "labelled compound, donor vesicles PC, phosphatidic acid, N-lactosylethanolamine"}, "[3]": {"target": "T3, PFA0210cN99 (Plasmodium falciparum, UniProt Q8I298)", "T3 construct": "gene PF3D7_0104200", "T3 sequence (Q8I298 entry or part of it)": "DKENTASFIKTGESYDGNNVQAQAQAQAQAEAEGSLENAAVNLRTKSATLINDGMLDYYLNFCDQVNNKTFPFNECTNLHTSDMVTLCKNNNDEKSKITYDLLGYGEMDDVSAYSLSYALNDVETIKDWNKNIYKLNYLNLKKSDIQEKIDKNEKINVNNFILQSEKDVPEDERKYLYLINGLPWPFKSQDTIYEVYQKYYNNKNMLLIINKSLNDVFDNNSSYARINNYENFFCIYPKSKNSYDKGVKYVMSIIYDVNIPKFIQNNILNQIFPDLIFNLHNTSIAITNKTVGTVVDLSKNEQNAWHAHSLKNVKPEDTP", "settings": "labelled compound, donor vesicles PC, phosphatidic acid, N-lactosylethanolamine"}}, "data": [{"smiles": "CCCCCCCCCCCCCCCC(=O)OC[C@H](COP(=O)([O-])OCC[N+](C)(C)C)OC(=O)CCCCCCCCCCCCCCC", "note": "[L-[α-dipalmitoyl-1-14C]phosphatidylcholine]", "values": [{"measurement": "radiolabelled phospholipid transfer between donor and acceptor vesicles", "setting": "[1]", "value": "transferred PC at levels similar to that of the control protein PITP"}, {"measurement": "radiolabelled phospholipid transfer between donor and acceptor vesicles", "setting": "[2]", "value": "(PFA0210cN99, PFA0210cN123, and PFA0210cN144, respectively) as the N-terminal residue can transfer phospholipids"}, {"measurement": "radiolabelled phospholipid transfer between donor and acceptor vesicles", "setting": "[3]", "value": "(PFA0210cN99, PFA0210cN123, and PFA0210cN144, respectively) as the N-terminal residue can transfer phospholipids"}]}]}
